Source: patent US20230165853A1, “METHOD FOR TREATING CHRONIC KIDNEY DISEASES” (ENYO PHARMA, priority 2021, published 2023)
Several values for one entry are separate records, joined by “and”; a condition that tells them apart may be missing. Equal entries are not always repeated. Entries after “also recorded” stand apart in the source; their conditions may differ. Marks after values point to notes of the source that are not given here. Values belong to the molecule of their own block, whether it stands above or below them.

Assays:
Nx mice [1] = test: Subtotal nephrectomy (Nx) mouse model of CKD, curative study, renal histopathology (Example 1); type: in vivo
Excerpt: (§1) Analysis has been focused on an experimental model of CKD, i.e. the subtotal nephrectomy (Nx). In this model, a “curative study” was investigated, i.e. treatments have been initiated 5 weeks after Nx, when lesions are already developed. 42 nine-week old FVB female mice have been investigated, of which 6 have been submitted to sham operation (controls) and 36 to subtotal nephrectomy (Nx), which consist in the excision of the right kidney and the two poles of the left kidney to reach 75% reduction of total renal mass. Surgery was performed under xylazine (Rompun 2%; Bayer, Leverkusen, France) (6 μg/g of body weight) and ketamine (Clorketam 1000; Vetoquinol SA, Lirre, France) (120 μg/g of body weight) anesthesia.
(§2) After 5 weeks, mice have been divided into 4 groups: • Sham mice treated with the vehicle (n=6) • Nx mice treated with the vehicle (n=10) • Nx mice treated with dEF2572 FXR agonist (4-bromo-5-[4-(2,6-dichloro-benzenesulfonyl)-piperazin-1-yl]-benzofuran-2-carboxylic acid) at 100 mg/Kg/day (n=11) • Nx mice treated with Nidufexor (LMB763) FXR agonist at 30 mg/Kg/day (n=10)
Compounds have been administered once a day (QD) per oral gavage.
Mice have been sacrificed 3 weeks later. Blood has been collected just before sacrifice. At sacrifice, kidneys have been harvested for morphological and mRNA analyses.
Kidneys were fixed in 4% paraformaldehyde, paraffin embedded, and 4-μm sections were stained with Periodic acid-Schiff (PAS), Masson's trichrome, Hematoxylin and eosin, and picrosirius red (PSR). Images were acquired using a Nikon Digital Camera Dx/m/1200. All sections were evaluated by a pathologist who was blinded to the treatment groups.
The degree of glomerular lesions was evaluated on Periodic acid-Schiff (PAS) staining using a semi-quantitative score methodology. Briefly, 40-60 glomeruli per mouse were scored at a magnification of ×400, using the following scoring system: 0=no lesion, 1=mild sclerosis, interesting 10-25% of the glomerulus, 2=moderate sclerosis, interesting 25%-50% of the glomerulus, 3=severe sclerosis interesting 50%-75% of the glomerulus, and 4=global sclerosis interesting >75% of the glomerulus. The results were expressed as the mean of the scores of 40-60 glomeruli per mouse.
The degree of tubular dilations was automatically quantified on PAS staining using Image J/Fiji software, version 2.1.0. The extent of interstitial fibrosis was also quantified using Image J/Fiji software. Staining of all kidney samples with picrosirius red (PSR) was performed simultaneously, and red intensity above a defined threshold was defined as fibrosis. For tubular dilations and interstitial fibrosis, at least 10 to 15 random selected fields (magnification ×200) across the corticomedullary junction were analyzed per each kidney section, and the results were expressed as percentages of the total area of the selected fields.

[2] = test system: FXR target genes (OSTA and OSTB); test: Renal OSTA and OSTB mRNA levels by quantitative RT-PCR in Nx mice (Example 1); type: in vivo, mouse; conditions: Nx mice kidneys
Method: Mice were subjected to a subtotal nephrectomy (Nx). Treatments were initiated 5 weeks after Nx for a duration of 3 weeks. Kidneys were collected at sacrifice, and OSTA and OSTB mRNA levels were assessed by quantitative RT-PCR. p-values are indicated on the graphs.
as §1
as §2, with “mg/Kg/day (n=10) […]” for “mg/Kg/day (n=10)”

Nx mice [3] = test: Subtotal nephrectomy (Nx) mouse model of CKD, curative study, interstitial fibrosis by PSR (Example 2); type: in vivo; conditions: initiated 5 weeks after Nx
Excerpt: Analysis has been focused on an experimental model of CKD, i.e. the subtotal nephrectomy (Nx). In this model, a “curative study” was investigated, i.e. treatments have been initiated 5 weeks after Nx, when lesions are already developed.
54 nine-week old FVB female mice have been investigated, of which 6 have been submitted to sham operation (controls) and 48 to subtotal nephrectomy (Nx), which consist in the excision of the right kidney and the two poles of the left kidney to reach 75% reduction of total renal mass. Surgery was performed under xylazine (Rompun 2%; Bayer, Leverkusen, France) (6 μg/g of body weight) and ketamine (Clorketam 1000; Vetoquinol SA, Lirre, France) (120 μg/g of body weight) anesthesia. […]
Kidneys were fixed in 4% paraformaldehyde, paraffin embedded, and 4-μm sections were stained with picrosirius red (PSR). […] All sections were evaluated by a pathologist who was blinded to the treatment groups.
Staining of all kidney samples with picrosirius red (PSR) was performed, and red intensity above a defined threshold was defined as fibrosis. For interstitial fibrosis, at least 10 to 15 random selected fields (magnification ×200) across the corticomedullary junction were analyzed per each kidney section, and the results were expressed as percentages of the total area of the selected fields.

NASH patients = test: Randomized, double-blind, placebo-controlled Livify NASH trial (Phase 2a); type: in vivo, human; conditions: for ALT, absolute change (IU/L) / Alpha-2-Macroglobulin, absolute change (mg/dL) / Body Weight, absolute change (kg) / Change Relative LFC, % / GGT, absolute change (IU/L) / Waist-to-Hip Ratio, absolute change / cT1, absolute change (msec) / eGFR, absolute change (mL/min/1.73 m^2) / Change Absolute LFC, %: change from baseline to W12, mean (SD); for Change Absolute LFC, %: MRI-PDFF
Method: Vonafexor has anti-fibrotic effects in NASH and Chronic Kidney Disease (CKD) models. Up to 64% of NASH patients have decreased estimated glomerular filtration rate (eGFR <90 mL/min/1.73 m^2) which can evolve into CKD. […] 96 patients were randomized 1:1:1 to daily oral Placebo (PBO, n=32) or VONA (Vonafexor) 100 mg (n=31) or 200 mg (n=33) for 12 weeks (W12). Inclusion criteria required phenotypic stage 2 or 3 fibrosis NASH with an absolute liver fat content (LFC by MRI-PDFF) ≥10% and liver stiffness by transient elastography [LSTE]≥8.5 kPa or previous biopsy-proven NASH. Randomization was stratified by diabetes and LFC.

[4] = 30 mg/Kg/day QD oral gavage for 3 weeks, 30 mg/kg/day
[5] = 100 mg/Kg/day QD oral gavage for 3 weeks, initiated 5 weeks after Nx
[6] = 100 mg/Kg/day QD oral gavage for 3 weeks, 100 mg/kg/day

SMILES: Cn1nc(C(=O)N(Cc2ccccc2)Cc2ccc(C(=O)O)cc2)c2c1-c1cc(Cl)ccc1OC2 [Nidufexor]
interstitial fibrosis (Nx mice [1]; 30 mg/Kg/day QD oral gavage for 3 weeks (FIG. 1)): no significant effect
beneficial effects on the kidneys (interstitial fibrosis, tubular dilatation, glomerular lesions) (Nx mice [1]; 30 mg/Kg/day QD oral gavage for 3 weeks, initiated 5 weeks after Nx): not observed
renal expression of FXR target genes OSTA and OSTB (mRNA) [2, 4]: strong renal FXR target engagement; also recorded: more powerful FXR agonist than the identified compounds; also recorded: significantly increase

SMILES: O=C(O)c1cc2c(Br)c(N3CCN(S(=O)(=O)c4c(Cl)cccc4Cl)CC3)ccc2o1 [dEF2572, 4-bromo-5-[4-(2,6-dichloro-benzenesulfonyl)-piperazin-1-yl]-benzofuran-2-carboxylic acid]
renal glomerular lesions (semi-quantitative score) (Nx mice [1]; [5]): significantly decreases
renal interstitial fibrosis (picrosirius red staining positive areas) (Nx mice [1]; [5]): significantly decreases
renal tubular dilatation (PAS staining) (Nx mice [1]; [5]): significantly decreases
renal expression of FXR target genes OSTA and OSTB (mRNA) [2, 6]: strong renal FXR target engagement; also recorded: significantly increase

patients discontinued participation due to pruritus (NASH patients; 100 mg): 9%
increase in low density lipoprotein-cholesterol (LDL-C) (NASH patients; NASH patients, 12 weeks): 34%
SMILES: O=C(O)c1cc2c(Cl)c(N3CCN(S(=O)(=O)c4c(Cl)cccc4Cl)CC3)ccc2o1 [Vonafexor, 4-chloro-5-[4-(2,6-dichloro-benzenesulfonyl)-piperazin-1-yl]-benzofuran-2-carboxylic acid]
renal interstitial fibrosis (picrosirius red staining positive areas) (Nx mice [3]; [6]): significantly decreases; also recorded: significantly better than OCA; also recorded: higher beneficial effects than Losartan
liver fibro-inflammation marker cT1 (Liver Multiscan) reduced by (NASH patients; 100 mg arm, p<0.001 vs PBO): 81 ms
% Patients >88 msec absolute reduction (cT1) (NASH patients; 100 mg daily oral, W12): 36% *
% Patients with >30% absolute reduction (LFC) (NASH patients; 100 mg daily oral, W12): 50% §
% Patients with >−17 IU/L reduction (ALT) (NASH patients; 100 mg daily oral, W12): 52% §
% Patients with any eGFR increase (NASH patients; 100 mg daily oral, W12): 76% §
ALT, absolute change (IU/L) (NASH patients; 100 mg daily oral): −19.3 (3.2) § IU/L
Alpha-2-Macroglobulin, absolute change (mg/dL) (NASH patients; 100 mg daily oral): −25.9 (4.3) #, § mg/dL
Body Weight, absolute change (kg) (NASH patients; 100 mg daily oral): −1.7 (0.5) #,§ kg
Change Relative LFC, % (NASH patients; 100 mg daily oral): −30.0 (4.7) #, § %
GGT, absolute change (IU/L) (NASH patients; 100 mg daily oral): −40.6 (3.3) #, § IU/L
Waist-to-Hip Ratio, absolute change (NASH patients; 100 mg daily oral): −0.02 (0.0) #, §
cT1, absolute change (msec) (NASH patients; 100 mg daily oral): −80.6 (15.4) #, § msec
eGFR, absolute change (mL/min/1.73 m^2) (NASH patients; 100 mg daily oral): +6.0 (9.5) #, § mL/min/1.73 m^2
Change Absolute LFC, % (NASH patients; 100 mg daily oral): −6.3% and −6.3 (0.9) #, § %
non-drug related severe adverse events (number) (NASH patients; 100 mg group): 2
mean improvement in eGFR (NASH patients; 100 mg or 200 mg treated subjects, 12 weeks): +5.6 mL/min/1.73 m^2
patients with an eGFR increase >0.1 mL/min/1.73 m (NASH patients; 100 mg treated subjects, 12-week treatment period): 76%
% Patients >88 msec absolute reduction (cT1) (NASH patients; 200 mg daily oral, W12): 36% *
% Patients with >5% absolute LFC reduction (NASH patients; 200 mg daily oral, W12): 43% §
% Patients with >30% absolute reduction (LFC) (NASH patients; 200 mg daily oral, W12): 39% §
% Patients with >−17 IU/L reduction (ALT) (NASH patients; 200 mg daily oral, W12): 36%
% Patients with any eGFR increase (NASH patients; 200 mg daily oral, W12): 65% §
ALT, absolute change (IU/L) (NASH patients; 200 mg daily oral): −10.8 (3.3) IU/L
Alpha-2-Macroglobulin, absolute change (mg/dL) (NASH patients; 200 mg daily oral): −18.4 (4.5) #, § mg/dL
Body Weight, absolute change (kg) (NASH patients; 200 mg daily oral): −2.5 (0.5) #, § kg
Change Relative LFC, % (NASH patients; 200 mg daily oral): −25.5 (4.6) #, § %
GGT, absolute change (IU/L) (NASH patients; 200 mg daily oral): −34.1 (3.3) #, § IU/L
Waist-to-Hip Ratio, absolute change (NASH patients; 200 mg daily oral): −0.01 (0.0)
cT1, absolute change (msec) (NASH patients; 200 mg daily oral): −71.9 (14.2) #, § msec
eGFR, absolute change (mL/min/1.73 m^2) (NASH patients; 200 mg daily oral): +2.5 (14.5) #, § mL/min/1.73 m^2
Change Absolute LFC, % (NASH patients; 200 mg daily oral): −5.5% and −5.5 (0.9) #, § %
non-drug related severe adverse events (number) (NASH patients; 200 mg group): 2
overall safety and tolerability (NASH patients; NASH patients, 100 mg or 200 mg daily for 12 weeks): safe and well tolerated
ALT increases Grade 2 (NASH patients; NASH patients, 12 weeks): No ALT increases Grade 2
alpha-2-Macroglobulin (A2M) plasma levels (NASH patients; NASH patients, reduction correlated with eGFR improvement (p<0.05)): reduced
mean reduction in ALT (NASH patients; VONA treatment (dose not stated), 12 weeks): 26%
patients achieving relative LFC reduction of >30% (NASH patients; VONA-treated (dose not stated), W12): 50%
mean reduction in GGT (NASH patients; VONA-treated subjects (dose not stated), p<0.001): 42%

SMILES: CC[C@H]1[C@@H](O)[C@@H]2[C@H](CC[C@]3(C)[C@@H]([C@H](C)CCC(=O)O)CC[C@@H]23)[C@@]2(C)CC[C@@H](O)C[C@@H]12 [Obeticholic acid, reference compound]
renal interstitial fibrosis (picrosirius red staining positive areas) (Nx mice [3]; [4]): no significant effect
